The test system of assay [1] is transcription factor NFκB. In words: Test of NFκB inhibition (TNFα stimulation in HaCaT keratinocyte cells). Type of assay: cell-based, human. The source says:
Transcription factor NFκB controls the expression of a large number of genes involved in inflammatory response regulation. Certain proinflammatory stimuli, such as tumor necrosis factor-α (TNFα), lead to NFκB activation, i.e., to its nuclear translocation. Consequently, NFκB will induce the transcription of proinflammatory genes coding for cytokines, chemokines, adhesion molecules, growth factors and inducible enzymes such as cyclooxygenase-2 (COX-2) and nitric oxide synthase (iNOS). NFκB plays a key role in the initiation and amplification of the inflammatory response. Certain chronic inflammatory diseases of the skin, such as atopic dermatitis or psoriasis, are characterized by deregulation of the expression of inflammation mediators expressed by keratinocytes. The anti-inflammatory activity of pure triptolide (TRP) in relation to that of plant cell culture extracts (IBO.18.134) with equivalent amounts of TRP is evaluated.
FIG. 6 represents the inhibition of various extracts on NFκB activation following TNFα stimulation in HaCaT keratinocyte cells. As a positive control, dexamethasone (2 μM), which inhibits NFκB activation by 36%, was used.

Another assay concerns RAW264.7 cells. In words: NO2− production by RAW264.7 cells stimulated with LPS (Griess reagent). Type of assay: cell-based, murine. The conditions noted are these: identical TRP concentrations; 1 μg/ml LPS, 24 hours. The procedure:
To this end, the test selected was NO2^− production by RAW264.7 cells stimulated with lipopolysaccharides (LPS).
Briefly, RAW264.7 cells (murine macrophages) were seeded at 1.4·10^5 cells/cm^2. After 24 hours, the cells were incubated for 1 hour with various concentrations of the products to be tested and then stimulated for 24 hours with 1 μg/ml of LPS. NO2 concentration was estimated in the culture supernatants using the Griess reagent.
The results (FIG. 7) illustrate NO2^− production obtained under the various conditions specified above. The percent inhibition calculated in relation to the LPS control appears in each histogram. Lastly, IC50 was calculated from these values (in bold blue).

Experimental findings from US9228209B2, “Method for producing triptolide” (priority 2009, dated 2016) are described below.

For the molecule `C[C@@H]1C[C@H]2[C@@H]3CCC4=CC(=O)C=C[C@]4(C)[C@@]3(F)[C@@H](O)C[C@]2(C)[C@@]1(O)C(=O)CO` [dexamethasone], the inhibition (usually the share of the control response that was lost under treatment) at 2 µM in assay [1] (Homo sapiens, HaCaT, read-out: inhibition of NFκB activation) turned out to be 36%.

Consider `CC(C)[C@]12O[C@H]1[C@@H]1O[C@]13[C@]1(O[C@H]1C[C@H]1C4=C(CC[C@@]13C)C(=O)OC4)[C@@H]2O` [triptolide, Triptolide], for which, in assay [1] (from 8 nM to 83 nM, TNFα stimulation, HaCaT keratinocyte cells), the “inhibition of NFκB activation” value is “inhibits in a dose-dependent manner”. Moreover, the “NFκB inhibition, PCC extract compared with pure triptolide” value in assay [1] (identical triptolide concentrations of 8 nM, 28 nM and 83 nM) is “equivalent”. In the assay with RAW264.7 cells, the “inhibition of nitrite production induced by LPS” value was “inhibit nitrite production”.
